pIC50: −log10 of the molar value.
Target: T1, HDAC2 Human recombinant C-terminal FLAG-tag (Homo sapiens, UniProt Q92769)
T1 construct: FLAG (C); purchased BPS Bioscience 50052
Assay: Measurement of HDAC2 enzyme inhibitory activity (HTRF)
Assay type: biochemical
Conditions: recombinant HDAC2, H3K9ac peptide, 3 hours room temperature; read-out: HDAC2 IC50
Protocol: Test Example 1: Measurement of HDAC2 Enzyme Inhibitory Activity
The HDAC2 enzyme inhibitory activity was measured by the method described in the following test example.
To each well of a 384-well plate (Corning, 4514), DMSO solution of the test compound was dispensed at 50 nL/well from a final concentration of 99 μM to 8 points (n=2) in the 3-fold dilution series using Echo555 (Beckman Coulter). 2.5 μl of 0.005 mg/mL recombinant enzyme HDAC2 (HDAC2 Human recombinant C-terminal FLAG-tag, BPS Bioscience, 50052) was added to each well, 2.5 μl of 0.6 μM H3K9ac peptide (Lys(Ac)9-Histone H3 (1-21)-GGK(Biotin), AnaSpec, 64361) was added, mixed, and reacted in a wet box at room temperature for 3 hours. 50 mM Tris HCL pH8.0, 137 mM sodium chloride, 2.7 mM potassium chloride, 1 mM magnesium chloride, 0.01% Tween20, and 0.1% BSA which were diluted with ultrapure water were used as a reaction buffer at this time. After the reaction, 5 μL of 10 μM SAHA (suberoylanilide hydroxamic acid) as a reaction terminator and the 5 μL of a mixture of 2.5 ng of H3K9me0 antibody (ActiveMotif, 61399) labeled in-house with europium cryptate (Cisbio, 65EUSABA) and 125 nM streptavidin-XL665 (Cisbio, 610SAXLA) as an HTRF (time-resolved fluorescence) reagent were added to each well, mixed, and allowed to stand in a wet box at room temperature for reaction. A detection buffer used at this time was 50 mM Tris HCL pH 8.0, 0.8 M potassium fluoride, and 0.1% BSA which were diluted with ultrapure water. After reacting for 2 hours or more, HTRF was measured using a multi-plate reader such as SpectraMax Paradigm (MOLECULAR DEVICE) or RUBYstar (BMG LABTECH). Ratio (665 nm/615-620 nm×10000) was calculated from the fluorescence values of two wavelengths, 615-620 nm and 665 nm, which were excited at 320-340 nm, and the energy transition was obtained.

T1 sequence (Q92769 whole entry): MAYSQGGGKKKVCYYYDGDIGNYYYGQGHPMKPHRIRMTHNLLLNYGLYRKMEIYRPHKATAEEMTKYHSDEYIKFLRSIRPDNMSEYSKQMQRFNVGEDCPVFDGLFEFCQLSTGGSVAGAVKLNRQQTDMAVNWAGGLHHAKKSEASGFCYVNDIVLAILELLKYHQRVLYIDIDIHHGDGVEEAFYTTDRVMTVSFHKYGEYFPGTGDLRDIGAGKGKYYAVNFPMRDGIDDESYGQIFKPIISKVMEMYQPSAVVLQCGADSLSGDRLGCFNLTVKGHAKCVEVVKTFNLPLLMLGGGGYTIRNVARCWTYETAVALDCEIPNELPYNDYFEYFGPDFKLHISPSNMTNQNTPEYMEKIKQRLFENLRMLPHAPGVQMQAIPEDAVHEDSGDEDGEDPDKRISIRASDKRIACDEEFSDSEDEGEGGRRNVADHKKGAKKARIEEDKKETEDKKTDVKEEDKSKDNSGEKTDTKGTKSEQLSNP

| Compound | pIC50 |
| --- | --- |
| CN(C)c1ccc(C(=O)Nc2cc(-c3cnn(C)c3)ccc2N)nn1 [Compound I-274] | 6.62 |
| Cn1cc(-c2cnc(C(=O)Nc3cc(-c4cnco4)ccc3N)cn2)cn1 [Compound I-009] | 7.21 |
| Nc1ccc(-c2ccc(F)nc2)cc1NC(=O)c1ccc(CO)cn1 [Compound I-192] | 6.66 |
| CC(=O)Nc1ccc(C(=O)Nc2nc(-c3ccccc3)ccc2N)nc1 [Compound I-281] | 6.64 |
| Nc1ccc(-c2cncs2)cc1NC(=O)c1cc2ccncc2cn1 [Compound I-060] | 7.33 |
| CN(Cc1ccccn1)c1cnc(C(=O)Nc2cc(-c3ccc(F)nc3)ccc2N)cn1 [Compound I-276] | 7.40 |
| Cn1cc(-c2ccc(N)c(NC(=O)c3cnc(OC(F)F)cn3)c2)cn1 [Compound I-146] | 6.42 |
| CCOc1ccc(C(=O)Nc2cc(-c3cnn(C)c3)ccc2N)nn1 [Compound I-269] | 6.74 |
| Cc1cnc(C(=O)Nc2cc(-c3ccc(F)nc3)ccc2N)cn1 [Compound I-123] | 6.85 |
| Nc1ccc(-c2ccc(F)nc2)cc1NC(=O)c1ccc(Cl)cn1 [Compound I-090] | 6.54 |
| Nc1ccc(-c2cncs2)cc1NC(=O)c1cnc2[nH]ccc2n1 [Compound I-064] | 7.02 |
| Cn1cc(-c2ccc(N)c(NC(=O)c3cnc(C(C)(C)C)cn3)c2)cn1 [Compound I-204] | 6.47 |
| Cn1cc(-c2ccc(C(=O)Nc3cc(-n4cccn4)ccc3N)nc2)cn1 [Compound I-063] | 6.57 |
| Cn1cc(-c2ccc(C(=O)Nc3cc(-n4cccc4)ccc3N)nc2)cn1 [Compound I-056] | 6.92 |
| CC(C)Oc1ccc(C(=O)Nc2cc(-c3cnn(C)c3)ccc2N)nc1 [Compound I-163] | 6.68 |
| CN(C)c1cnc(C(=O)Nc2nc(-c3ccc(F)nc3)ccc2N)cn1 [Compound I-247] | 6.42 |
| CN(C)c1cnc(C(=O)Nc2cc(-c3ccc(F)nc3)ccc2N)cn1 [Compound I-178] | 7.34 |
| Nc1ccc(-c2ccc(F)nc2)cc1NC(=O)c1ccc2c(n1)OCO2 [Compound I-183] | 7.32 |
| Nc1ccc(-c2ccc(F)nc2)cc1NC(=O)c1cnc(Cl)cn1 [Compound I-239] | 6.64 |
| COCCOc1cnc(C(=O)Nc2cc(-c3cnn(C)c3)ccc2N)cn1 [Compound I-230] | 6.60 |
| C#Cc1ccc(C(=O)Nc2cc(-c3cncs3)ccc2N)nc1 [Compound I-058] | 6.89 |
| Cn1cc(-c2ccc(C(=O)Nc3cc(-c4cccs4)ccc3N)nn2)cn1 [Compound I-027] | 6.89 |
| Nc1ccc(-n2ccc(F)c2)cc1NC(=O)c1cnc(N2CCCOCC2)cn1 [Compound I-298] | 6.89 |
| COc1cnc(C(=O)Nc2cc(-c3cnn(C)c3)ccc2N)nc1 [Compound I-258] | 6.06 |
| Nc1ccc(-n2ccc(F)c2)cc1NC(=O)c1cnc(N2CCOCC2)cn1 [Compound I-267] | 7.00 |

| Compound | pIC50 |
| --- | --- |
| CC(C)(O)c1ccc(C(=O)Nc2cc(-c3ccc(F)nc3)ccc2N)nc1 [Compound I-193] | 6.77 |
| COc1cnc(C(=O)Nc2cc(-c3ccc(F)nc3)ccc2N)nc1 [Compound I-259] | 6.47 |
| Cn1cccc1-c1cc(C(=O)Nc2cc(-c3cncs3)ccc2N)no1 [Compound I-199] | 6.70 |
| CCOc1ccc(C(=O)Nc2cc(-c3ccc(F)nc3)ccc2N)nn1 [Compound I-268] | 6.89 |
| Cn1cc(-c2cnc(C(=O)Nc3nc(-c4ccccc4)ccc3N)cn2)cn1 [Compound I-039] | 6.38 |
| Nc1ccc(-c2ccc(F)nc2)cc1NC(=O)c1cnccn1 [Compound I-114] | 6.59 |
| Cn1cc(-c2ccc(C(=O)Nc3cc(-c4cccs4)ccc3N)nc2)nn1 [Compound I-001] | 7.25 |
| Nc1ccc(-c2ccc(F)nc2)cc1NC(=O)c1ccc2c(n1)OCC(=O)N2 [Compound I-184] | 7.31 |
| CCNc1cnc(C(=O)Nc2cc(-c3ccc(F)nc3)ccc2N)cn1 [Compound I-285] | 7.40 |
| Cn1cc(-c2ccc(C(=O)Nc3cc(-c4ccc(F)nc4)ccc3N)nc2)nn1 [Compound I-040] | 7.20 |
| Nc1ccc(-c2cncs2)cc1NC(=O)c1cc(Cl)c(Cl)cn1 [Compound I-072] | 6.32 |
| Cn1cc(-c2cnc(C(=O)Nc3nc(-c4cccs4)ccc3N)c(F)c2)cn1 [Compound I-022] | 6.33 |
| CCOc1ccc(C(=O)Nc2cc(-c3ccc(F)nc3)ccc2N)nc1 [Compound I-164] | 6.68 |
| COCc1cnc(C(=O)Nc2cc(-c3ccc(F)nc3)ccc2N)cn1 [Compound I-218] | 6.82 |
| CC#Cc1ccc(C(=O)Nc2cc(-c3cncs3)ccc2N)nc1 [Compound I-094] | 6.64 |
| Nc1ccc(-c2ccccc2)nc1NC(=O)c1ccc2c(n1)OCC(=O)N2 [Compound I-233] | 6.55 |
| Cn1cc(-c2cnc(C(=O)Nc3cc(-c4cncs4)ccc3N)cn2)cn1 [Compound I-010] | 7.51 |
| COc1cnc(C(=O)Nc2cc(-c3cncs3)ccc2N)cn1 [Compound I-099] | 7.14 |
| Cn1cc(-c2ccc(N)c(NC(=O)c3cnc(N4CCCC4)cn3)c2)cn1 [Compound I-241] | 6.85 |
| Nc1ccc(-c2ccccc2)nc1NC(=O)c1ccc2c(n1)OCO2 [Compound I-217] | 6.47 |
| Cn1cc(-c2cnc(C(=O)Nc3cc(-c4cccs4)ccc3N)c(F)c2)cn1 [Compound I-016] | 6.80 |
| CC(C)Oc1ccc(C(=O)Nc2cc(-c3ccc(F)nc3)ccc2N)nc1 [Compound I-162] | 6.70 |
| Nc1ccc(-c2cncs2)cc1NC(=O)c1ccc(C(F)(F)F)cn1 [Compound I-020] | 6.59 |
| COCc1cnc(C(=O)Nc2cc(-c3cnn(C)c3)ccc2N)cn1 [Compound I-219] | 6.51 |
| CN(Cc1ccccn1)c1cnc(C(=O)Nc2cc(-c3cnn(C)c3)ccc2N)cn1 [Compound I-295] | 7.10 |

| Compound | pIC50 |
| --- | --- |
| Nc1ccc(-c2cncs2)cc1NC(=O)c1cc2c(cn1)OCCC2 [Compound I-067] | 6.92 |
| CC(C)Oc1ccc(C(=O)Nc2cc(-c3cnn(C)c3)ccc2N)nn1 [Compound I-293] | 6.47 |
| Cn1cc(-c2ccc(N)c(NC(=O)c3cc4c(cn3)OCCC4)c2)cn1 [Compound I-255] | 6.39 |
| CN(C)c1cnc(C(=O)Nc2cc(-c3cncs3)ccc2N)cn1 [Compound I-205] | 7.22 |
| Nc1ccc(-c2cncs2)cc1NC(=O)c1cnc(OCF)cn1 [Compound I-100] | 7.00 |
| Cn1cc(-c2ccc(C(=O)Nc3cc(-c4cnn(C)c4)ccc3N)nc2)cn1 [Compound I-037] | 6.74 |
| CC(C)Nc1cnc(C(=O)Nc2cc(-c3ccc(F)nc3)ccc2N)cn1 [Compound I-242] | 7.40 |
| Cn1cc(-c2ccc(C(=O)Nc3cc(-c4cnco4)ccc3N)nc2)cn1 [Compound I-004] | 7.19 |
| Nc1ccc(-c2ccc(F)nc2)cc1NC(=O)c1ccccn1 [Compound I-113] | 6.49 |
| Cn1cc(-c2ccc(N)c(NC(=O)c3cnc(NCc4ccccn4)cn3)c2)cn1 [Compound I-294] | 7.15 |
| Nc1ccc(-n2ccc(F)c2)cc1NC(=O)c1cnc(N2CCC2)cn1 [Compound I-300] | 7.15 |
| CC(C)Oc1ccc(C(=O)Nc2cc(-c3ccc(F)nc3)ccc2N)nn1 [Compound I-289] | 6.70 |
| C#Cc1ccc(C(=O)Nc2cc(-c3ccc(F)nc3)ccc2N)nc1 [Compound I-096] | 6.57 |
| Nc1ccc(-c2ccc(F)nc2)cc1NC(=O)c1ccc(N2CCC2)nn1 [Compound I-266] | 6.85 |
| Nc1ccc(-c2ccc(F)nc2)cc1NC(=O)c1ccc(C2CCC2)cn1 [Compound I-243] | 6.59 |
| Cn1cc(-c2ccc(N)c(NC(=O)c3cnc(OC4CCOCC4)cn3)c2)cn1 [Compound I-291] | 6.51 |
| Nc1ccc(-n2ccc(F)c2)cc1NC(=O)c1cnc(NCc2ccccn2)cn1 [Compound I-302] | 7.10 |
| Cn1cc(-c2ccc(N)c(NC(=O)c3ccc(Cl)nn3)c2)cn1 [Compound I-270] | 6.01 |
| Nc1ccc(-c2ccc(F)nc2)cc1NC(=O)c1cnc(NC2CCOCC2)cn1 [Compound I-286] | 7.15 |
| Cc1ccc(C(=O)Nc2cc(-c3ccc(F)nc3)ccc2N)nc1F [Compound I-210] | 6.72 |
| CC(C)c1ccc(C(=O)Nc2cc(-c3ccc(F)nc3)ccc2N)nc1 [Compound I-181] | 6.85 |
| Cn1cc(-c2cnc(C(=O)Nc3cc(-c4cnco4)ccc3N)cn2)nn1 [Compound I-012] | 7.03 |
| COc1ccc(C(=O)Nc2cc(-c3ccc(F)nc3)ccc2N)nn1 [Compound I-253] | 6.82 |

Same assay, conditions: recombinant HDAC2, H3K9ac peptide; read-out: IC50 (HDAC2)

| Compound | pIC50 |
| --- | --- |
| CCC(=O)Nc1ccc(C(=O)Nc2cc(-c3cnn(C)c3)ccc2N)nc1 [Compound I-307] | 7.11 |

— patent US20230119479A1, “A HISTONE DEACETYLASE INHIBITOR HAVING A NITROGEN-CONTAINING AROMATIC HETEROCYCLYL GROUP” (SHIONOGI & CO., LTD., priority 2019, published 2023)
